Source: ChEMBL document CHEMBL5728884, “Kinase inhibitors and uses thereof” (2021)

Molecular target: T1, Receptor-interacting serine/threonine-protein kinase 1 (Homo sapiens, UniProt Q13546)
T1 sequence (Q13546 whole entry): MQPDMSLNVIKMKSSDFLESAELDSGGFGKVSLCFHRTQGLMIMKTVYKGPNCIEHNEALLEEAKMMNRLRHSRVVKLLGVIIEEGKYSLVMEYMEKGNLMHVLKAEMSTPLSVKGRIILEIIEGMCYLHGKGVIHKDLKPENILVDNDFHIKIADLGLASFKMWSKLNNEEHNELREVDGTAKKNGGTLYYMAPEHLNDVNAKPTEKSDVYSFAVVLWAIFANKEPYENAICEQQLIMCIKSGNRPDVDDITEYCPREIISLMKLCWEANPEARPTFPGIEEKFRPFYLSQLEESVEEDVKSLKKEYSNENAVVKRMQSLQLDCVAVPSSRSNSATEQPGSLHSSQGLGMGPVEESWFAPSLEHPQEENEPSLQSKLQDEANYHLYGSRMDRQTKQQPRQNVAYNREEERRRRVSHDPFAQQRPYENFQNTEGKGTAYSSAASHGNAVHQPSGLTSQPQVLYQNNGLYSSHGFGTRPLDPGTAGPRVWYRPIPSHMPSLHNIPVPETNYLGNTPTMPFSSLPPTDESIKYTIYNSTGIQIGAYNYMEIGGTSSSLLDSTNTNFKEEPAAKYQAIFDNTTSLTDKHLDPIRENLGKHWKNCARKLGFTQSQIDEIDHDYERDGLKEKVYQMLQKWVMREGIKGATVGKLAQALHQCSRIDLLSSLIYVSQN
Experiment: Fluorescent Polarization Binding (FP Binding) Assay: Test compounds were serially diluted in DMSO at 100 fold final concentrations in the assay (1% DMSO final). In each well of a 384-well Plate were dispensed 0.1 μL of compound solution (or DMSO for controls) followed by 5 μL of GST-hRIPK1 (8-327) at twice the final concentrations in assay buffer (50 mM HEPES pH 7.5, 10 mM NaCl, 50 mM MgCl2, 0.02% CHAPS, 0.5 mM DTT and 0.01% Pluronic F127). For negative control the enzyme addition was replaced by assay buffer only.After addition of 5 μL of fluorescentlabeled ligand at twice the final concentrations in assay buffer, the plate was incubated at RT for […]. At the end, the binding was measured as FP value with the Envision (PerkinElmer) plate reader using filter for an excitation λ=531 nm FP and an emission λ=595 nm FP (S & P-pol). GST-hRIPK1 (8-327) enzyme was produced via Baculovirus expression.

Row | SMILES | IC50 [nM]
1 | CC1(C(=O)N2CCOc3ccncc3C2)CCN(c2ncc(F)cn2)CC1(F)F (configuration not stated) | < 100
2 | Cc1nc(N2CCC(F)(C(=O)N3CCOc4c(C#N)cncc4C3)CC2)ncc1F | < 100
